21 compounds from patent US11384078B2, “5,6-fused-bicyclic compounds and compositions for the treatment of parasitic diseases” (NOVARTIS AG, priority 2017, dated 2022) can be followed below.

What all share (format): cell-based
The subject of experiment [1] is Trypanosoma cruzi amastigotes cultured in 3T3 fibroblast cells. As to the kind of experiment: Assay for growth inhibition of kinetoplastid parasite Trypanosoma cruzi (beta-galactosidase Tulahuen strain, CPRG readout). The conditions noted are these: Trypanosoma cruzi, T. cruzi amastigotes in 3T3 fibroblast cells, read-out: Buckner infectious T. cruzi EC50. The method, boiled down:
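3T3 fibroblasts (1,000 cells/well) plated overnight, treated with compound in DMSO, then infected with 10,000 Lac-Z-expressing Tulahuen trypomastigotes. After 6 days, 0.6 mM CPRG with 0.6% NP-40 added for 2 h at room temperature; absorbance gives relative intracellular amastigote numbers. Benznidazole and nifurtimox serve as positive controls.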

For experiment [2], the system named is Trypanosoma brucei brucei (Lister 427) strain. The experiment can be described thus: Assay for growth inhibition against Trypanosoma brucei brucei (Cell TiterGlo ATP luminescence). The conditions noted are these: Trypanosoma brucei, T. brucei brucei (Lister 427); read-out: T. Brucei (HAT) EC50. The method, boiled down: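 Growth read-out is cellular ATP by CellTiter-Glo luminescence, measured 30 min after reagent addition, following 2-day incubation at 37 °C in CO2. Parasites (10,000/mL, HMI-9 plus 10% FBS and 10% serum plus) faced 10 threefold dilutions in duplicate; IC50 taken as 50% growth inhibition versus untreated.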
(In general: Cellular ATP, detected with luciferase, serves as a proxy for viable cell number.)

The subject of experiment [3] is Leishmania donovani axenic amastigote. The experiment can be described thus: In vitro assay for growth inhibition of Leishmania donovani axenic amastigote (Cell TiterGlo luminescence). The conditions noted are these: Leishmania donovani, L. donovani axenic amastigotes in vitro; read-out: L. donovani amastigotes EC50. The gist of the method:
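Compound-treated wells received 9600 axenic amastigotes in RPMI 1640-based medium at pH 5.5 (37 °C, 5% CO2). Growth measured as ATP luminescence (CellTiter-Glo) after 2-day incubation; DMSO and reference compounds served as controls.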

Experiment [4] concerns L. donovani HU3 strain in mouse peritoneal macrophages. As to the kind of experiment: Assay for inhibition of parasitemia of Leishmania donovani in mouse macrophages (SYBR Green nuclei count, high-content imaging). The conditions noted are these: Leishmania donovani, Peritoneal macrophage, read-out: L. donovani in Mouse Macrophages EC50. The method, boiled down:
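Parasite numbers were counted from SYBR Green-stained nuclei imaged by high-content microscopy after paraformaldehyde fixation and Triton permeabilization. Before this, compound was applied for 5 days at 37° C to BALB/c peritoneal macrophages (2×10^4/well) that had been exposed 24 h to 4×10^5 L. donovani HU3 amastigotes harvested from infected mouse spleens.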

Setting [5] is: L. donovani in mouse peritoneal macrophages.

Read-outs that look alike come from different tables or passages of the source.

For orientation: EC50 means the midpoint of the concentration-response curve. In the case of `O=C(Nc1ccc(F)c(-n2cc3cc(N4CC5(CCOC5)C4)cnc3n2)c1)N1CC2(CCOC2)C1` [Compound 246, N-[4-fluoro-3-(5-{6-oxa-2-azaspiro[3.4]octan-2-yl}-2H-pyrazolo[3,4-b]pyridin-2-yl)phenyl}-6-oxa-2-azaspiro[3.4]octane-2-carboxamide], the half-maximal effective concentration (EC50) was 2840 nM in experiment [1] (Fibroblast), 396 nM in experiment [2], 535 nM in experiment [3] and 379 nM in experiment [4] (setting [5]).
Take `O=C(Nc1ccc(F)c(-n2cc3cc(-n4ccnc4)cnc3n2)c1)N1CC(F)C1` [Compound 323, 3-fluoro-N-{4-fluoro-3-[5-(1H-imidazol-1-yl)-2H-pyrazolo[3,4-b]pyridin-2-yl]phenyl}azetidine-1-carboxamide]: the EC50 came out at 62 nM in experiment [1] (Fibroblast), 15 nM in experiment [2], 12 nM in experiment [3] and 113 nM in experiment [4] (setting [5]).
For `O=C(Nc1ccc(F)c(-n2cc3cc(Cl)cnc3n2)c1)N1CC(F)C1` [Compound 276, N-(3-{5-chloro-2H-pyrazolo[3,4-b]pyridin-2-yl}-4-fluorophenyl)-3-fluoroazetidine-1-carboxamide] the same measures were 21 nM, 33 nM, 29 nM and 100 nM.
The corresponding values for `O=C(Nc1ccc(F)c(-n2cc3cc(N4CCOCC4)cnc3n2)c1)N1CC(F)C1` [Compound 132, 3-fluoro-N-{4-fluoro-3-[5-(morpholin-4-yl)-2H-pyrazolo[3,4-b]pyridin-2-yl]phenyl}azetidine-1-carboxamide] are 13 nM, under 23 nM, 11 nM and 7 nM.
The corresponding values for `O=C(Nc1ccc(F)c(-n2cc3cc(C4CCN(Cc5ccc(F)cc5)CC4)cnc3n2)c1)N1CC(F)C1` [Compound 305, 3-fluoro-N-[4-fluoro-3-(5-{1-[(4-fluorophenyl)methyl]piperidin-4-yl]-2H-pyrazolo[3,4-b]pyridin-2-yl)phenyl]azetidine-1-carboxamide] are 1 nM, 5 nM, 110 nM and 3 nM.
As to `O=C(Nc1ccc(F)c(-n2cc3cc(N4CC(F)(F)C4)cnc3n2)c1)N1CCCC1` [Compound 338, N-{3-[5-(3,3-difluoroazetidin-1-yl)-2H-pyrazolo[3,4-b]pyridin-2-yl]-4-fluorophenyl}pyrrolidine-1-carboxamide], the EC50 in experiment [1] (Fibroblast) worked out at 3 nM; in experiment [2], 3 nM; in experiment [3], 5 nM; in experiment [4] (setting [5]), 2 nM.
For `O=C(Nc1ccc(F)c(-n2cc3cc(C4CCN(Cc5ccccc5)CC4)cnc3n2)c1)N1CC(F)C1` [Compound 296, N-{3-[5-(1-benzylpiperidin-4-yl)-2H-pyrazolo[3,4-b]pyridin-2-yl]-4-fluorophenyl}-3-fluoroazetidine-1-carboxamide], the EC50 worked out at 5 nM in experiment [1] (Fibroblast), 5 nM in experiment [2], 216 nM in experiment [3] and 2 nM in experiment [4] (setting [5]).
Take `Cc1nccnc1-c1cnc2nn(-c3cc(NC(=O)N4CC(F)C4)ccc3F)cc2c1` [Compound 312, 3-fluoro-N-{4-fluoro-3-[5-(3-methylpyrazin-2-yl)-2H-pyrazolo[3,4-b]pyridin-2-yl]phenyl}azetidine-1-carboxamide]: the EC50 in experiment [1] (Fibroblast) was determined as 4 nM; in experiment [2] it was 33 nM; in experiment [3] it was 3 nM; in experiment [4] (setting [5]), 2 nM.
For `O=C(Nc1ccc(F)c(-n2cc3cc(N4CCCC4)cnc3n2)c1)N1CC(F)(F)C1` [Compound 161, 3,3-difluoro-N-{4-fluoro-3-[5-(pyrrolidin-1-yl)-2H-pyrazolo[3,4-b]pyridin-2-yl]phenyl}azetidine-1-carboxamide] the same measures were 9.8 nM, under 23 nM, 7.7 nM and 7.3 nM.
For `Cc1cnc2nn(-c3cc(NC(=O)N4CC(F)C4)ccc3F)cc2c1` [Compound 318, 3-fluoro-N-(4-fluoro-3-{5-methyl-2H-pyrazolo[3,4-b]pyridin-2-yl}phenyl)azetidine-1-carboxamide] the same measures were 13 nM, 15 nM, 27 nM and 32 nM.
`CCOC1CC1C(=O)Nc1ccc(F)c(-n2cc3cc(C(C)C)cnc3n2)c1` (stereo not drawn) [Compound 207, 2-ethoxy-N-{4-fluoro-3-[5-(propan-2-yl)-2H-pyrazolo[3,4-b]pyridin-2-yl]phenyl}cyclopropane-1-carboxamide]: the EC50 in experiment [1] (Fibroblast) came out at 1270 nM; in experiment [2] it was 1820 nM; in experiment [3] it was 1830 nM; in experiment [4] (setting [5]), 2060 nM.
The corresponding values for `CCCC(C)c1cnc2nn(-c3cc(NC(=O)N4CC(F)C4)ccc3F)cc2c1` (stereo not drawn) [Compound 23, 3-fluoro-N-{4-fluoro-3-[5-(pentan-2-yl)-2H-pyrazolo[3,4-b]pyridin-2-yl]phenyl}azetidine-1-carboxamide] are 78 nM, under 23 nM, 140 nM and 110 nM.
For `O=C(Nc1ccc(F)c(-n2cc3cc(C4CCC4)cnc3n2)c1)N1CC(F)C1` [Compound 20, N-(3-{5-cyclobutyl-2H-pyrazolo[3,4-b]pyridin-2-yl}-4-fluorophenyl)-3-fluoroazetidine-1-carboxamide] the same measures were 4.2 nM, under 23 nM, 10 nM and 37 nM.
The corresponding values for `CN(C)c1cnc2nn(-c3cc(NC(=O)N4CC[C@@H](F)C4)ccc3F)cc2c1` [Compound 133, (3R)-N-{3-[5-(dimethylamino)-2H-pyrazolo[3,4-b]pyridin-2-yl]-4-fluorophenyl}-3-fluoropyrrolidine-1-carboxamide] are 5.9 nM, under 23 nM, 12 nM and 8 nM.
Consider `O=C(Nc1ccc(F)c(-n2cc3cc(N4CCC5(CC4)COC5)cnc3n2)c1)N1CC(F)C1` [Compound 248, 3-fluoro-N-[4-fluoro-3-(5-{2-oxa-7-azaspiro[3.5]nonan-7-yl}-2H-pyrazolo[3,4-b]pyridin-2-yl)phenyl]azetidine-1-carboxamide], for which the concentration for a half-maximal effect (EC50) in experiment [1] (Fibroblast) was 11 nM; in experiment [2], 5 nM; in experiment [3], 117 nM; in experiment [4] (setting [5]), 8 nM.
As for `O=C(Nc1ccc(F)c(-n2cc3cc(Br)cnc3n2)c1)N1CCC1` [Compound 129, N-(3-(5-bromo-2H-pyrazolo[3,4-b]pyridin-2-yl)-4-fluorophenyl)azetidine-1-carboxamide], the half-maximal effective concentration (EC50) in experiment [1] is 15 nM; in experiment [2] it was under 23 nM; in experiment [3], 29 nM; in experiment [4], 31 nM.
With `O=C(Nc1ccc(F)c(-n2cc3cc(CC4CCC4)cnc3n2)c1)N1CCC1` [Compound 97, N-{3-[5-(cyclobutylmethyl)-2H-pyrazolo[3,4-b]pyridin-2-yl]-4-fluorophenyl}azetidine-1-carboxamide], the 50% effective concentration (EC50) in experiment [1] (Fibroblast) is 8.8 nM; in experiment [2], under 23 nM; in experiment [3] it was 12 nM; in experiment [4] (setting [5]), 440 nM.
As to `[2H]C([2H])([2H])N(c1cnc2nn(-c3cc(NC(=O)N4CC[C@@H](F)C4)ccc3F)cc2c1)C([2H])([2H])[2H]` [Compound 308, (3R)-N-(3-{5-[bis(^2H3)methylamino]-2H-pyrazolo[3,4-b]pyridin-2-yl}-4-fluorophenyl)-3-fluoropyrrolidine-1-carboxamide], the EC50 in experiment [1] (Fibroblast) came out at 4 nM; in experiment [2] it was 5 nM; in experiment [3], 568 nM; in experiment [4] (setting [5]), 2 nM.
For `O=C(Nc1ccc(F)c(-n2cc3cc(N4CC(F)C4)cnc3n2)c1)C1CC1` [Compound 327, N-{4-fluoro-3-[5-(3-fluoroazetidin-1-yl)-2H-pyrazolo[3,4-b]pyridin-2-yl]phenyl}cyclopropanecarboxamide] the same measures were 149 nM, 232 nM, 351 nM and 1200 nM.
For `CC(C)Cc1cnc2nn(-c3cc(NC(=O)N4CCC4)ccc3F)cc2c1` [Compound 7, N-(4-fluoro-3-(5-isobutyl-2H-pyrazolo[3,4-b]pyridin-2-yl)phenyl)azetidine-1-carboxamide], the EC50 was 1.6 nM in experiment [1] (Fibroblast), under 23 nM in experiment [2], 7.7 nM in experiment [3] and 4 nM in experiment [4] (setting [5]).
The corresponding values for `CC(C)c1cnc2nn(-c3cc(NC(=O)CCC4CC4)ccc3F)cc2c1` [Compound 215, 3-cyclopropyl-N-{4-fluoro-3-[5-(propan-2-yl)-2H-pyrazolo[3,4-b]pyridin-2-yl]phenyl}propanamide] are 738 nM, 947 nM, 4700 nM and 2980 nM.
